The term pIC50 denotes the negative decadic logarithm of the IC50, by convention in mol/L.

Molecules are shown by their SMILES. pIC50: −log10 of the molar value. Where only a bound is given, the exact number is not on record here.

Common to all, as to format: cell-based
One experiment relates to Mia-Pa-Ca-2. Description: Cell viability (CellTiter-Blue, 72 h), Mia-Pa-Ca-2 pancreatic cancer cells. As to conditions: Homo sapiens, MIA PaCa-2, 72 h, read-out: Cell line IC50 value. On the procedure:
(§1) The following cell lines were tested in this example: Lung Cancer (A549, NCI-H460); Pancreatic cancer (PANC1, Mia-Pa-Ca-2); Melanoma (WM115, A375); Ovarian cancer (OVCAR3, SKOV3); Gastric cancer (MKN45, HGC-27); Renal cancer (ACHN) and Bladder Cancer (RT112).
(§2) Each tumour cell line was maintained in vitro in RPMI 1640+10% heat inactivated FBS and 2 mM L-glutamine (growth media) at 37° C. in 5% CO2 and humidified conditions. The cells were harvested, washed, re-suspended into growth medium and counted. The cells were re-suspended into assay media (RPMI 1640+5% heat inactivated FBS+ and 2 mM L-glutamine) at 4×10^4 cells/ml (dependent upon cell type) and plated into the middle 240 wells of 384 well tissue culture plates (Corning CellBind, black-wall plates) 25 μl/well aliquots; 50 μl of growth media was aliquoted into the outer wells. There were 3 plates for each cell line.
(§3) The plates were incubated overnight at 37° C., in 5% humidified CO2.
(§4) The phytocannabinoid test compounds were prepared in 100% DMSO vehicle at a stock concentration of 20 and 40 mM.
(§5) Starting with the 20 mM stock in DMSO, this was serially diluted (2 fold) in DMSO in a 96-well plate, to 20 (no dilution), 10, 5, 2.5, 1.25, 0.625, 0.315, 0.157 and […]. Following this, 10 ul of each compound dilution was diluted into 990 ul of 1% (v/v) FBS media in a deep well block making the final concentrations of 200, 100, 50, 25, 12.5, 6.25, 3.125, 1.56 and 0.79 μM (2× final assay concentrations and 1% DMSO).
(§6) An equal volume of each cannabinoid in the combination (stock concentration 40 mM) was mixed together to make a stock of 20 mM of each cannabinoid in DMSO. This was serially diluted (2 fold) in DMSO in a 96-well plate, to 20 (no dilution), 10, 5, 2.5, 1.25, 0.625, 0.315, 0.157 and […]. Following this, 10 ul of each combination dilution was diluted into 990 ul of 1% (v/v) FBS media in a deep well block making the final concentrations of 200, 100, 50, 25, 12.5, 6.25, 3.125, 1.56 and 0.79 μM (2× final assay concentrations and 1% DMSO).
(§7) Gemcitabine SOC was prepared in 100% DMSO to give a stock concentration of 20 mM. This was then serially diluted (3 fold) in DMSO in a 96-well plate, to 20 (no dilution), 6.6, 2.2, 0.741, 0.247, 0.082, 0.027, 0.009 and 0.003 mM. Following this, 10 ul of each dilution was further diluted into 990 ul of 1% (v/v) FBS media making the final concentrations of 200 (no dilution), 66.66, 22.22, 7.41, 2.47, 0.82, 0.27, 0.09, 0.03 μM (2× final assay concentrations and 1% DMSO).
(§8) The plates were incubated for 72 h at 37° C. in 5% humidified CO2. To develop the plates, at 72 h, 10 μl of CellTiter-Blue™ reagent was added to each test/blank well.
(§9) The plates were incubated at 37° C., 5% humidified CO2. Fluorescence was measured using a Flex II Station plate reader (570 nm excitation wavelength, 600 nm emission wavelength, 590 nm cut-off) after 3 h.
(§10) The phytocannabinoid compounds CBD, CBGA, CBG, CBDA, THCV and THC were tested on a panel of lung (A549, NCI-H460), pancreatic (PANC1, Mia-Pa-Ca-2), melanoma (WM115, A375), ovarian (OVCAR3, SKOV3), gastric (MKN45, HGC-27), renal (ACHN) and bladder (RT112) cancer cell lines according to the protocol for 72 h in media containing 1% FBS.
(§11) The IC50 values for each phytocannabinoid and combination of CBD with the other phytocannabinoids was calculated for each cell line. The raw data values expressed in relative fluorescent units were normalised to the vehicle for each individual plate and any reduction in fluorescence indicated a decrease in viability.
(§12) This calculation was as described in Example 1 above.

Another experiment deals with PANC-1. Description: Cell viability (CellTiter-Blue, 72 h), PANC-1 pancreatic cancer cells. As to conditions: Homo sapiens; PANC-1, 1% FBS, 72 h; read-out: Cell line IC50 value. As for the experimental part: as §1, §2, §3, §4, §5, §6, §7, §8, §9, §10, §11, §12
(Resazurin is reduced to fluorescent resorufin, in cell work by metabolically active cells.)

In another experiment the test system is SKOV3. The experiment is described as follows: Cell viability (CellTiter-Blue, 72 h), SKOV3 ovarian cancer cells. As to conditions: SKOV3, 1% FBS, 72 h; read-out: Cell line IC50 value. As for the experimental part:
as §1, §2, §3, §4, §5, §6
(§13) Cisplatin (stock of 1 mg/ml=3.33 mM in water) was diluted in 1% FBS media to give a stock concentration of 1 mM. This was then diluted in 1% FBS media from the stock solution to 200 μM, then serially diluted (3-fold) in 1% FBS media to 200 (no dilution), 66.66, 22.22, 7.41, 2.47, 0.82, 0.27, 0.09, 0.03 μM (2× final assay concentrations; no DMSO).
as §8, §9, §10, §11, §12

The next experiment has as its system OVCAR3. Description: Cell viability (CellTiter-Blue, 72 h), OVCAR3 ovarian cancer cells. As to conditions: OVCAR3, 1% FBS, 72 h; read-out: Cell line IC50 value. On the procedure:
as §1, §2, §3, §4, §5, §6, §13, §8, §9, §10, §11, §12

The test system of a further experiment is HGC-27. Description: Cell viability (CellTiter-Blue, 72 h), HGC-27 gastric cancer cells. As to conditions: HGC-27, 1% FBS, 72 h; read-out: Cell line IC50 value. As for the experimental part: as §1, §2, §3, §4, §5, §6, §13, §8, §9, §10, §11, §12
The test system of another experiment is RT112. The experiment is described as follows: Cell viability (CellTiter-Blue, 72 h), RT112 bladder cancer cells. As to conditions: RT112, 1% FBS, 72 h; read-out: Cell line IC50 value. On the procedure: as §1, §2, §3, §4, §5, §6, §13, §8, §9, §10, §11, §12
A further experiment concerns MKN45. Description: Cell viability (CellTiter-Blue, 72 h), MKN45 gastric cancer cells. As to conditions: MKN45, 1% FBS, 72 h; read-out: Cell line IC50 value. As for the experimental part: as §1, §2, §3, §4, §5, §6, §13, §8, §9, §10, §11, §12
For the next experiment, the system named is WM115. Description: Cell viability (CellTiter-Blue, 72 h), WM115 melanoma cells. As to conditions: WM115, 1% FBS, 72 h; read-out: Cell line IC50 value. As for the experimental part: as §1, §2, §3, §4, §5, §6, §13, §8, §9, §10, §11, §12
A further experiment concerns A375. Description: Cell viability (CellTiter-Blue, 72 h), A375 melanoma cells. As to conditions: A375, 1% FBS, 72 h; read-out: Cell line IC50 value. As for the experimental part: as §1, §2, §3, §4, §5, §6, §13, §8, §9, §10, §11, §12

`Nc1ccn([C@@H]2O[C@H](CO)[C@@H](O)C2(F)F)c(=O)n1` [Gemcitabine, reference compound]: the pIC50 in the experiment with Mia-Pa-Ca-2 and in the experiment with PANC-1 was less than 4.00 throughout.
As for `N.N.[Cl][Pt][Cl]` [Cisplatin, reference compound], the pIC50 in the experiment with SKOV3 is 5.35; with OVCAR3, 5.11; in the experiment with HGC-27, 4.33; in the experiment on RT112 it was 4.57; in the experiment on MKN45 it was 5.01; in the experiment on WM115 it was 4.46. Also, the pIC50 in the experiment on A375 was 5.20.

These data come from patent US9962341B2, “Active pharmaceutical ingredient (API) comprising cannabinoids for use in the treatment of cancer” (GW Pharma Limited, priority 2014, dated 2018).
